These results are taken from patent US12441726B2, “Compounds and uses thereof” (Foghorn Therapeutics Inc., priority 2020, dated 2025).

Molecules are shown by their SMILES.

For one test, the target named is BRM (Homo sapiens, UniProt P51531). Briefly: ATPase catalytic activity assay (ADP-Glo), BRM. The conditions noted are these: 30 nM BRM, 400 μM ATP; for IC50: BRM ATPase: IC50 (uM). (In general: ADP-Glo turns the ADP formed in a reaction into a luminescent signal.)
For a further test, the target named is BRG-1 (Homo sapiens, UniProt P51532). The test is described as follows: ATPase catalytic activity assay (ADP-Glo), BRG-1. To be noted: for Emax: 1 h, read-out: BRG1 Max % Inhibition, ADP-Glo, 30 nM BRG-1, 400 μM ATP.
Sequence of BRG-1 (P51532 whole entry): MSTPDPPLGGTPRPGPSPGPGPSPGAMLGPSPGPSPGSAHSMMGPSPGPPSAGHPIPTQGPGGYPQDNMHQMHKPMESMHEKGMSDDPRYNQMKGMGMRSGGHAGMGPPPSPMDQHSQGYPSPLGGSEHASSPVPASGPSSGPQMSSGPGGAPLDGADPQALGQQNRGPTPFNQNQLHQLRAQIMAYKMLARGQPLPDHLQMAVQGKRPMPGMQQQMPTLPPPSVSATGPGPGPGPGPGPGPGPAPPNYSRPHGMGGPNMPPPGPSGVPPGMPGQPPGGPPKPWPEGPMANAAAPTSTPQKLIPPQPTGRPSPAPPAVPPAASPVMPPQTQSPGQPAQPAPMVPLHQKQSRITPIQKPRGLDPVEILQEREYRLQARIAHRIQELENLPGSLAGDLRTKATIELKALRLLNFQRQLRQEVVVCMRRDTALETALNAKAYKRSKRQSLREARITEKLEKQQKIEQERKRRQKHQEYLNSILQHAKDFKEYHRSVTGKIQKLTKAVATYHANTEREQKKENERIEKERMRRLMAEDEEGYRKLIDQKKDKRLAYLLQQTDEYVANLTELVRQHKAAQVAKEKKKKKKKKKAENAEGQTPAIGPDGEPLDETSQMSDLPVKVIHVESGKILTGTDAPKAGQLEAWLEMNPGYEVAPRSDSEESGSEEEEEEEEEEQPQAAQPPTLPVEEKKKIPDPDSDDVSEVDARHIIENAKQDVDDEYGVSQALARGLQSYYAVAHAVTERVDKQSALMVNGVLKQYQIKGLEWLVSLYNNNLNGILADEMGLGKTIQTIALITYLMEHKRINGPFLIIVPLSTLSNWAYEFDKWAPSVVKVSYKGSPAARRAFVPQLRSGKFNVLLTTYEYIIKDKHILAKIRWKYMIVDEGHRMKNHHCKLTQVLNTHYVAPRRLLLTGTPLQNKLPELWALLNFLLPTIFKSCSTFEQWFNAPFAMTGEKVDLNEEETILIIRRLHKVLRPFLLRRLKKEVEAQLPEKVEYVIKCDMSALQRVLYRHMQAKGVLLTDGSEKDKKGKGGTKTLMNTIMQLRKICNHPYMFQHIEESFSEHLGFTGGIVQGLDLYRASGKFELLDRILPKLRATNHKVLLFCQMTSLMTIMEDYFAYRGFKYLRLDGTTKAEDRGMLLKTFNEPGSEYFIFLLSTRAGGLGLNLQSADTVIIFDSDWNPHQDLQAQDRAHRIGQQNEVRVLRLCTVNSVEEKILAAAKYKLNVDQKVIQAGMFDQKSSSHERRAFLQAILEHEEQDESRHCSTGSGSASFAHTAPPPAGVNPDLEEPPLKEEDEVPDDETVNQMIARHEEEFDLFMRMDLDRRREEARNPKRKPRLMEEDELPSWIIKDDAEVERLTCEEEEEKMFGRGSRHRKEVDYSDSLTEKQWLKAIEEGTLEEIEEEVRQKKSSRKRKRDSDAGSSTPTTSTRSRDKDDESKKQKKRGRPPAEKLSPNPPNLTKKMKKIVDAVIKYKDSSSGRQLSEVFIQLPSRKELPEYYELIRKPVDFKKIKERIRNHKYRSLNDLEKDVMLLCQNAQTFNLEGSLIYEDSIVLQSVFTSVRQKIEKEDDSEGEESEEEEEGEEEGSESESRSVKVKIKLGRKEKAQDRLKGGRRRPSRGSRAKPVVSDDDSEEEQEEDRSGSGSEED

Sequence of BRM (P51531 whole entry): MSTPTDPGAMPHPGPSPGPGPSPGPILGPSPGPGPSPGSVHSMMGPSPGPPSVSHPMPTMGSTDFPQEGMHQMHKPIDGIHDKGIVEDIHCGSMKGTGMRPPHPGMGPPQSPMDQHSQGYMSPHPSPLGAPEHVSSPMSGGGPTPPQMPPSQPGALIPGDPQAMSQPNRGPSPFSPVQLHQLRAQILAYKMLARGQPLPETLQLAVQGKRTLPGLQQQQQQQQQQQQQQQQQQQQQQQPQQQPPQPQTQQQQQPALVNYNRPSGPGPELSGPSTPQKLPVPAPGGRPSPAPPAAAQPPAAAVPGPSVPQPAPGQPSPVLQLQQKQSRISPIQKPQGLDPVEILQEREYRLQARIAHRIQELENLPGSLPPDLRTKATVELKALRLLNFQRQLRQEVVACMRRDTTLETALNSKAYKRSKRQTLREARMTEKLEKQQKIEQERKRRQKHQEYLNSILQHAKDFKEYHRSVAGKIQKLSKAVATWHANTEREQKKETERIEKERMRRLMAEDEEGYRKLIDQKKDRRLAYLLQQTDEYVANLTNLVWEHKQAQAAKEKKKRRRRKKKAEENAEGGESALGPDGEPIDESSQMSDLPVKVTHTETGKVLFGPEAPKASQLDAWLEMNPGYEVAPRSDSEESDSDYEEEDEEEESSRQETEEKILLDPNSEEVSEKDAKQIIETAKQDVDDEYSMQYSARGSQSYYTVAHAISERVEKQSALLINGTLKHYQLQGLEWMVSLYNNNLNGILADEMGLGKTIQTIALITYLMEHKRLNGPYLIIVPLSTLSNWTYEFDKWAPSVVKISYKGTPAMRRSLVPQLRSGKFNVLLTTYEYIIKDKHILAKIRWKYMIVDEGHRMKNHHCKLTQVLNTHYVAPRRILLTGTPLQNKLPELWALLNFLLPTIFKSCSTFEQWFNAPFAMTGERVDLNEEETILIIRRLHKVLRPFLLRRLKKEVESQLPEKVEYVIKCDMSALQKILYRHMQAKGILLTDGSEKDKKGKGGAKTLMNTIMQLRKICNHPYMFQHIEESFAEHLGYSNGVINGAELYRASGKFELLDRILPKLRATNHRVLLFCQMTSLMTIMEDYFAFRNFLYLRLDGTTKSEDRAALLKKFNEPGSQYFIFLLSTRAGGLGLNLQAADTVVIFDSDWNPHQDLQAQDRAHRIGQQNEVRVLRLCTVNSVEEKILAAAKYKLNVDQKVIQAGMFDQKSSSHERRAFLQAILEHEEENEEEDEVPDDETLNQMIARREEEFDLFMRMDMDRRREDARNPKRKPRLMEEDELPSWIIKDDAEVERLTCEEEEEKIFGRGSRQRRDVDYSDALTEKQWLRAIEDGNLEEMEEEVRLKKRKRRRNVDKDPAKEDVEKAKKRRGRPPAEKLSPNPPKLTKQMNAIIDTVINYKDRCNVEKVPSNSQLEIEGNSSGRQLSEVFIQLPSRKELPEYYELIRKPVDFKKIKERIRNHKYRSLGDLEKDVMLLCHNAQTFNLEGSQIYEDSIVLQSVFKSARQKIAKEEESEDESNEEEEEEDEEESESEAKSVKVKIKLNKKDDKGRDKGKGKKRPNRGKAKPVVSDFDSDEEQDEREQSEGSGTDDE

For `C[C@@]1(F)COCc2ccc(C(=O)NCc3cc4nc(-c5cccc(C6(O)CCOCC6)n5)ccc4cn3)cc21` [Compound 302], at BRM, the “BRM Max % Inhibition” value is 93% and the IC50 (usually the concentration that gives 50% inhibition) was 0.1 to 0.5 µM. Further, on BRG-1, the IC50 was in the range of 500 to 1000 nM and the Emax was 58%.

For `C[C@@]1(F)COCc2ccc(C(=O)NCc3cc4nc(-c5ccnc(N6CCC6)n5)sc4cn3)cc21` [Compound 245], on BRM, the “BRM Max % Inhibition” value worked out at 96% and the IC50 was 0.1 to 0.5 µM. Moreover, at BRG-1, the IC50 lay within 500 to 1000 nM and the Emax was determined as 75%.

Take `C[C@@]1(CO)COCc2ccc(C(=O)NCc3cc4nc(-c5ccccc5)sc4cn3)cc21` [Compound 115]: on BRM, the “BRM Max % Inhibition” value stood at 84% and the IC50 was above 1 µM. On BRG-1, the IC50 was above 1000 nM and the Emax came out at 19%.

With `CN(C)c1cccc(-c2ccc3cnc(CNC(=O)c4cc(F)c5c(c4)[C@](F)(C(F)F)COC5)cc3n2)n1` [Compound 226], at BRM, the “BRM Max % Inhibition” value was determined as 98% and the IC50 fell in the range of 0.1 to 0.5 µM. Further, on BRG-1, the IC50 lay in the range of 100 to 500 nM and the Emax worked out at 85%.

On to `COCCn1cc(-c2ccc3cnc(CNC(=O)c4ccc5c(c4)[C@](C)(C#N)COC5)cc3n2)c(OC)n1` [Compound 203], for which, at BRM, the “BRM Max % Inhibition” value was determined as 84% and the IC50 lay within 0.1 to 0.5 µM. On BRG-1, the IC50 is above 1000 nM and the Emax came out at 26%.

With `C[C@@]1(C#N)COCc2ccc(C(=O)NCc3cc4nc(-c5cncc(N6CCCC6)n5)ccc4cn3)cc21` [Compound 415], at BRM, the “BRM Max % Inhibition” value is given as 99% and the IC50 is below 0.1 µM. For the same compound, on BRG-1, the IC50 was below 100 nM and the Emax turned out to be 95%.

For `Cc1cc(-c2ccc3cnc(CNC(=O)c4ccc5c(c4)[C@](C)(C#N)COC5)cc3n2)n(C)n1` [Compound 501], on BRM, the “BRM Max % Inhibition” value amounted to 85% and the IC50 is 0.1 to 0.5 µM. Also, at BRG-1, the IC50 is above 1000 nM and the Emax was found to be 47%.

`C[C@@]1(C#N)COCc2ccc(C(=O)NCc3cc(OCc4ccccn4)ccn3)cc21` [Compound 36]: at BRM, the “BRM Max % Inhibition” value was 64% and the IC50 is above 1 µM. For the same compound, on BRG-1, the IC50 is above 1000 nM and the Emax came out at 44%.

As to `COc1nn(C2CCC2)cc1-c1ccc2cnc(CNC(=O)c3ccc4c(c3)[C@](C)(C#N)COC4)cc2n1` [Compound 200], on BRM, the “BRM Max % Inhibition” value is reported as 97% and the IC50 lay in the range of 0.1 to 0.5 µM. Further, on BRG-1, the IC50 lay within 500 to 1000 nM and the Emax was 71%.

Regarding `C[C@@]1(F)COCc2ccc(C(=O)NCc3cc4nc(-c5ccnn(C6CC6)c5=O)ccc4cn3)cc21` [Compound 268], on BRM, the “BRM Max % Inhibition” value is listed as 97% and the IC50 was in the range of 0.1 to 0.5 µM. Further, at BRG-1, the IC50 fell in the range of 500 to 1000 nM and the Emax turned out to be 67%.

With `Cc1cc2c(-c3ccc4cnc(CNC(=O)c5ccc6c(c5)[C@](C)(C#N)COC6)cc4n3)ccc(F)c2n1C` [Compound 129], at BRM, the “BRM Max % Inhibition” value stood at 100% and the IC50 is below 0.1 µM. Moreover, on BRG-1, the IC50 was below 100 nM and the Emax came to 98%.

`C[C@@]1(C#N)COCc2ccc(C(=O)NCc3cc4cc(-c5ccnc(N6CCC6)c5F)cnc4cn3)cc21` [Compound 294]: on BRM, the “BRM Max % Inhibition” value stood at 100% and the IC50 is below 0.1 µM. For the same compound, on BRG-1, the IC50 was 100 to 500 nM and the Emax came to 86%.

As for `C[C@@]1(C#N)COCc2ccc(C(=O)NCc3cc4nc(-c5cn(C6COC6)nc5C(F)F)ccc4cn3)cc21` [Compound 145], at BRM, the “BRM Max % Inhibition” value stood at 94% and the IC50 lay in the range of 0.1 to 0.5 µM. In addition, at BRG-1, the IC50 is 500 to 1000 nM and the Emax is 65%.

For `C[C@@]1(C#N)COCc2ccc(C(=O)NCc3cc4nc(-c5cccc(N6CCCC6=O)n5)ccc4cn3)cc21` [Compound 378], at BRM, the “BRM Max % Inhibition” value worked out at 100% and the IC50 was below 0.1 µM. Also, at BRG-1, the IC50 was in the range of 100 to 500 nM and the Emax was found to be 99%.

Take `Cc1cc2c(-c3ccc4cnc(CNC(=O)c5ccc6c(c5)[C@](C)(C#N)COC6)cc4n3)cccc2n1C` [Compound 172]: on BRM, the “BRM Max % Inhibition” value was found to be 99% and the IC50 was below 0.1 µM. In addition, at BRG-1, the IC50 is below 100 nM and the Emax came out at 97%.

On to `C[C@@]1(C#N)COCc2ccc(C(=O)NCc3cc4nc(N5CCn6nccc6C5)ccc4cn3)cc21` [Compound 486], for which, on BRM, the “BRM Max % Inhibition” value is reported as 95% and the IC50 fell in the range of 0.1 to 0.5 µM. Besides, on BRG-1, the IC50 was above 1000 nM and the Emax came out at 70%.

Turning to `C[C@@]1(C#N)COCc2ccc(C(=O)NCc3cc4nc(-c5ccc(C(F)F)nc5)ccc4cn3)cc21` [Compound 478], at BRM, the “BRM Max % Inhibition” value is given as 95% and the 50% inhibitory concentration (IC50) is 0.1 to 0.5 µM. Besides, on BRG-1, the IC50 lay in the range of 500 to 1000 nM and the Emax turned out to be 63%.

For the compound `COc1ccc(C)cc1-c1ccc2cnc(CNC(=O)c3ccc4c(c3)[C@](C)(C#N)COC4)cc2n1` [Compound 153], at BRM, the “BRM Max % Inhibition” value was found to be 87% and the IC50 fell in the range of 0.1 to 0.5 µM. Further, on BRG-1, the IC50 was above 1000 nM and the Emax was 37%.

For `C[C@@]1(C#N)COCc2ccc(C(=O)NCc3cc4c(cn3)CCN(c3ccc(=O)n(C5CC5)n3)C4)cc21` [Compound 230], on BRM, the “BRM Max % Inhibition” value is 97% and the IC50 lay in the range of 0.1 to 0.5 µM. On BRG-1, the IC50 is 500 to 1000 nM and the Emax was determined as 62%.

For the compound `COCCn1c(C)cc2c(-c3ccc4cnc(CNC(=O)c5ccc6c(c5)[C@](C)(C#N)COC6)cc4n3)cccc21` [Compound 133], on BRM, the “BRM Max % Inhibition” value was 102% and the IC50 is below 0.1 µM. Moreover, at BRG-1, the IC50 is below 100 nM and the Emax turned out to be 98%.

For the compound `C[C@@]1(C#N)COCc2ccc(C(=O)NCc3cc(OCc4ccccc4)ccn3)cc21` [Compound 6], on BRM, the “BRM Max % Inhibition” value amounted to 95% and the IC50 is 0.1 to 0.5 µM. At BRG-1, the IC50 was above 1000 nM and the Emax came to 44%.

As to `C[C@@]1(C#N)COCc2ccc(C(=O)NCc3cc4nc(N5CCCN(C6CC6)C5=O)ccc4cn3)cc21` [Compound 315], on BRM, the “BRM Max % Inhibition” value was 81% and the IC50 is 0.1 to 0.5 µM. At BRG-1, the IC50 is above 1000 nM and the Emax came out at 33%.

As to `CN(C)C(=O)c1cccc(-c2ccc3cnc(CNC(=O)c4ccc5c(c4)[C@](C)(C#N)COC5)cc3n2)n1` [Compound 464], on BRM, the “BRM Max % Inhibition” value was found to be 88% and the IC50 lay within 0.1 to 0.5 µM. For the same compound, at BRG-1, the IC50 was above 1000 nM and the Emax was found to be 48%.

Regarding `C[C@@]1(F)COCc2ccc(C(=O)NCc3cc4cc(-c5cccc(N6CCC6)n5)cnc4cn3)cc21` [Compound 347], on BRM, the “BRM Max % Inhibition” value turned out to be 100% and the IC50 is below 0.1 µM. Moreover, at BRG-1, the IC50 was 100 to 500 nM and the Emax amounted to 79%.

In the case of `COc1cc(F)ccc1-c1ccc2cnc(CNC(=O)c3ccc4c(c3)[C@](C)(C#N)COC4)cc2n1` [Compound 481], at BRM, the “BRM Max % Inhibition” value was found to be 98% and the IC50 was below 0.1 µM. In addition, on BRG-1, the IC50 was in the range of 100 to 500 nM and the Emax was found to be 95%.

On to `C[C@@]1(C#N)COCc2ccc(C(=O)NCc3cc4nc(-c5ccnc(N6CC7(COC7)C6)n5)ccc4cn3)cc21` [Compound 403], for which, on BRM, the “BRM Max % Inhibition” value is on record as 99% and the IC50 was below 0.1 µM. For the same compound, at BRG-1, the IC50 fell in the range of 100 to 500 nM and the Emax turned out to be 91%.
